Values quoted from earlier work in patent US20260232577A1, “A MACROLIDE FOR USE IN A METHOD OF PREVENTING OR TREATING AN IMMUNOLOGICAL DISEASE OR DISORDER” (Nucleus Medical GmbH, priority 2023, published 2026).

## C=CC[C@@H]1/C=C(\C)C[C@H](C)C[C@H](OC)[C@H]2O[C@@](O)(C(=O)C(=O)N3CCCC[C@H]3C(=O)O[C@H](/C(C)=C/[C@@H]3CC[C@@H](O)[C@H](OC)C3)[C@H](C)[C@@H](O)CC1=O)[C@H](C)C[C@@H]2OC [tacrolimus]
After oral administration, international literature
  bioavailability variability: 4-90%
After oral application, internationally described
  blood level fluctuations, variation range: more than 80%
Limited by presystemic metabolism in the GI tract
  oral bioavailability on average: ~ 25%
